Results published in patent publication US20250049776A1, “AUTOPHAGY INDUCING COMPOUNDS AND USES THEREOF, IN PARTICULAR FOR A SYSTEMIC TREATMENT OF DISEASES AND CONDITIONS” (Samsara Therapeutics Inc., priority 2021, published 2025).
Like-named read-outs stand apart in the source and are kept apart here.

System: Human osteosarcoma U20S cells
Test: Assay to measure lysosome and autolysosome formation (acidic vesicle formation, LysoView/LysoTracker staining)
Format: cell-based
Settings: for activation at 0.8 µM: Homo sapiens; for acidic vesicle formation relative to a DMSO-treated control / increase in acidic vesicle formation: U20S cells; for acidic vesicle formation relative to a DMSO-treated control: concentration of 10 μM, 24 hours; for increase in acidic vesicle formation: relative to DMSO-treated control (10 μM)
Procedure: Lysosomes play a fundamental role in the autophagic pathway by fusing with autophagosomes and creating ‘autolysosomes’ in order to digest their contents. Stimulation of lysosome and autolysosome formation by a compound is indicative of a stimulation of autophagy. The ability of compounds to stimulate lysosome and autolysosome formation, and thus autophagy, in live cells was assessed via fluorescent microscopy using various fluorescent stains for labelling and tracking acidic organelles (including lysosomes and autolysosomes) such as: LysoView™ 650 (70059 and 70059-T, Biotium), LysoViewTM633 (70058 and 70058-T, Biotium) and LysoTracker™ Deep Red (L12492, ThermoFisher Scientific). The cellular phenotype was quantitatively assessed for the induction of acidic vesicle formation and compared to a non-treated control, thus providing a measure of the ability of the compound under investigation to stimulate autophagy.
Representative procedure using LysoView™633 dye or LysoTracker™ Deep Red dye: Human osteosarcoma U20S cells (40,000 cells/well) were seeded in a 24 well glass bottom plate (Sensoplate, Greiner Bio-One) and were incubated overnight in a humidified atmosphere at 37° C. and 5% CO2. Cells were grown in DMEM (Gibco) supplemented with 10% Fetal Bovine Serum (FBS) and 100 units/ml penicillin and 100 μg/ml streptomycin (Invitrogen). After the attachment period, cells were treated with different compounds of interest (at various concentrations in DMSO) or DMSO (non-treated control) in cell culture medium and were incubated for 24 hours. Compound-containing medium was removed and cells were incubated with pre-warmed cell culture medium containing 1× LysoView™ 633 (70058 and 70058-T, Biotium) or 50 nM LysoTracker™ Deep Red (L12492, ThermoFisher Scientific) for 45 minutes at 37° C. Finally, cell nuclei were stained for 10 minutes using Hoechst 33342 (1 μg/mL) and then the medium was replaced with fresh medium. The 24 well plate was then fitted into a heated stage on the microscope and cells maintained at 37° C. Images were captured using appropriate filter set for Cy5 and DAPI detection with the EVOS M7000 Microscope (ThermoFisher Scientific). The cellular phenotype was visually assessed for the induction of acidic vesicle formation relative to the non-treated control; multiple images were acquired and analyzed using ImageJ or Cell Profiler.

[1] = U2OS cells, concentration of 0.8 μM, read-out: Activity (percentage increase in acidic vesicle formation over the DMSO-treated control), Table 2
[2] = U2OS cells, concentration of 0.8 μM, read-out: Activity (percentage increase in acidic vesicle formation), Table 2a Preferred compounds

Compound	activation at 0.8 µM [1] [%]	further results
CCCN(C(=O)c1csc(-c2cnn(-c3ccc(OC(F)(F)F)cc3)c2)n1)[C@H]1CCNC1 [Compound 45, N-propyl-N-[(3S)-pyrrolidin-3-yl]-2-{1-[4-(trifluoromethoxy)phenyl]-1H-pyrazol-4-yl}-1,3-thiazole-4-carboxamide]	30 to 50	–
O=C(NCC1CCNCC1)c1csc(-c2cnn(-c3ccccc3)c2)n1 [Compound 177, 2-(1-phenyl-1H-pyrazol-4-yl)-N-[(piperidin-4-yl)methyl]-1,3-thiazole-4-carboxamide]	10 to 30	–
O=C(NCC1CCNCC1)c1cc(-c2cnn(-c3ccccc3)c2)cs1 [Compound 111, 4-(1-phenyl-1H-pyrazol-4-yl)-N-[(piperidin-4-yl)methyl]thiophene-2-carboxamide]	30 to 50	–
NCCCCCNC(=O)c1cc(-c2cnn(-c3ccccc3)c2)cs1 [Compound 17, N-(5-aminopentyl)-4-(1-phenyl-1H-pyrazol-4-yl)thiophene-2-carboxamide]	10 to 30	–
NCCOCCNC(=O)c1ccc(-c2cnn(-c3ccccc3)c2)o1 [Compound 101, N-[2-(2-aminoethoxy)ethyl]-5-(1-phenyl-1H-pyrazol-4-yl)furan-2-carboxamide]	30 to 50	–
CCCN(C(=O)c1csc(-c2cnn(-c3cccc(C(F)(F)F)c3)c2)n1)[C@H]1CCNC1 [Compound 48, N-propyl-N-[(3S)-pyrrolidin-3-yl]-2-{1-[3-(trifluoromethyl)phenyl]-1H-pyrazol-4-yl}-1,3-thiazole-4-carboxamide]	50 to 100	activation at 0.8 µM [2]: 50 to 100%
NC1CN(C(=O)c2csc(-c3cnn(-c4ccccc4)c3)n2)C1 [Compound 124, 1-[2-(1-phenyl-1H-pyrazol-4-yl)-1,3-thiazole-4-carbonyl]azetidin-3-amine]	50 to 100	activation at 0.8 µM [2]: 50 to 100%
COc1cccc(-n2cc(-c3nc(C(=O)N4CCC[C@@H]4CN)cs3)cn2)c1 [Compound 50, 1-[(2R)-1-{2-[1-(3-methoxyphenyl)-1H-pyrazol-4-yl]-1,3-thiazole-4-carbonyl}pyrrolidin-2-yl]methanamine]	50 to 100	activation at 0.8 µM [2]: 50 to 100%
CCCN(C(=O)c1ccc(-c2cnn(-c3ccccc3)c2)o1)[C@@H]1CCNC1 [Compound 99, 5-(1-phenyl-1H-pyrazol-4-yl)-N-propyl-N-[(3R)-pyrrolidin-3-yl]furan-2-carboxamide]	50 to 100	activation at 0.8 µM [2]: 50 to 100%
CCCN(C(=O)c1csc(-c2cnn(-c3ccccc3C(F)(F)F)c2)n1)[C@@H]1CCNC1 [Compound 83, N-propyl-N-[(3R)-pyrrolidin-3-yl]-2-{1-[2-(trifluoromethyl)phenyl]-1H-pyrazol-4-yl}-1,3-thiazole-4-carboxamide]	30 to 50	–
CC(C)N(C(=O)c1csc(-c2cnn(-c3ccncc3)c2)n1)C1CCNCC1 [Compound 322, N-(piperidin-4-yl)-N-(propan-2-yl)-2-[1-(pyridin-4-yl)-1H-pyrazol-4-yl]-1,3-thiazole-4-carboxamide]	–	acidic vesicle formation relative to a DMSO-treated control: only a slight increase; increase in acidic vesicle formation: only a slight increase
O=C(NC1CNC1)c1csc(-c2cnn(-c3ccccc3)c2)n1 [Compound 180, N-(azetidin-3-yl)-2-(1-phenyl-1H-pyrazol-4-yl)-1,3-thiazole-4-carboxamide]	30 to 50	–
CCCN(C(=O)c1csc(-c2cnn(-c3cccc(C)c3)c2)n1)[C@@H]1CCNC1 [Compound 29, 2-[1-(3-methylphenyl)-1H-pyrazol-4-yl]-N-propyl-N-[(3R)-pyrrolidin-3-yl]-1,3-thiazole-4-carboxamide]	30 to 50	–
N[C@H]1CCCN(C(=O)c2csc(-c3cnn(-c4ccccc4)c3)n2)C1 [Compound 142, (3S)-1-[2-(1-phenyl-1H-pyrazol-4-yl)-1,3-thiazole-4-carbonyl]piperidin-3-amine]	10 to 30	–
CCCN(C(=O)c1csc(-c2cnn(-c3ccccc3F)c2)n1)[C@@H]1CCNC1 [Compound 97, 2-[1-(2-fluorophenyl)-1H-pyrazol-4-yl]-N-propyl-N-[(3R)-pyrrolidin-3-yl]-1,3-thiazole-4-carboxamide]	30 to 50	–
CCCN(C(=O)c1csc(-c2ccc(-c3ccccc3)s2)n1)[C@H]1CCNC1 [Compound 69, 2-(5-phenylthiophen-2-yl)-N-propyl-N-[(3S)-pyrrolidin-3-yl]-1,3-thiazole-4-carboxamide]	30 to 50	–
CC(C)N(C(=O)c1csc(-c2cnn(-c3ccccc3)c2)n1)[C@H]1[C@@H]2CNC[C@@H]21 [Compound 318, N-[(1R,5S,6S)-3-azabicyclo[3.1.0]hexan-6-yl]-2-(1-phenyl-1H-pyrazol-4-yl)-N-(propan-2-yl)-1,3-thiazole-4-carboxamide]	> 100	–
CCCN(C(=O)c1csc(-c2cnn(-c3ccc(F)cc3)c2)n1)[C@H]1CCNC1 [Compound 58, 2-[1-(4-fluorophenyl)-1H-pyrazol-4-yl]-N-propyl-N-[(3S)-pyrrolidin-3-yl]-1,3-thiazole-4-carboxamide]	10 to 30	–
CCCN(C(=O)c1csc(-c2cnn(-c3cccc(F)c3)c2)n1)[C@@H]1CCNC1 [Compound 53, 2-[1-(3-fluorophenyl)-1H-pyrazol-4-yl]-N-propyl-N-[(3R)-pyrrolidin-3-yl]-1,3-thiazole-4-carboxamide]	10 to 30	–
CCCN(C(=O)c1csc(-c2ccc(-c3ccccc3)s2)n1)[C@@H]1CCNC1 [Compound 70, 2-(5-phenylthiophen-2-yl)-N-propyl-N-[(3R)-pyrrolidin-3-yl]-1,3-thiazole-4-carboxamide]	30 to 50	–
CCCN(C(=O)c1ccc(-c2cnn(-c3ccccc3)c2)[nH]1)[C@@H]1CCNC1 [Compound 94, 5-(1-phenyl-1H-pyrazol-4-yl)-N-propyl-N-[(3R)-pyrrolidin-3-yl]-1H-pyrrole-2-carboxamide]	> 100	activation at 0.8 µM [2]: 50 to 100%; Activity (percentage increase in acidic vesicle formation), Table 2b More preferred compounds (U2OS cells, concentration of 0.8 μM): ++++ (a percentage increase in acidic vesicle of greater than 100% over the DMSO-treated control)
CCCN(C(=O)c1ccc(-c2cnn(-c3ccccc3)c2)o1)[C@H]1CCNC1 [Compound 98, 5-(1-phenyl-1H-pyrazol-4-yl)-N-propyl-N-[(3S)-pyrrolidin-3-yl]furan-2-carboxamide]	50 to 100	activation at 0.8 µM [2]: 50 to 100%
CC(C)N(C(=O)c1csc(-c2cnn(-c3cccnc3)c2)n1)C1CCNCC1 [Compound 321, N-(piperidin-4-yl)-N-(propan-2-yl)-2-[1-(pyridin-3-yl)-1H-pyrazol-4-yl]-1,3-thiazole-4-carboxamide]	30 to 50	increase in acidic vesicle formation: only a slight increase
CCCN(C(=O)c1csc(-c2cnn(-c3ccc(Cl)cc3)c2)n1)[C@@H]1CCNC1 [Compound 41, 2-[1-(4-chlorophenyl)-1H-pyrazol-4-yl]-N-propyl-N-[(3R)-pyrrolidin-3-yl]-1,3-thiazole-4-carboxamide]	10 to 30	–
O=C(NC[C@@H]1CNCCO1)c1csc(-c2cnn(-c3ccccc3)c2)n1 [Compound 107, N-{[(2S)-morpholin-2-yl]methyl}-2-(1-phenyl-1H-pyrazol-4-yl)-1,3-thiazole-4-carboxamide]	10 to 30	–
CCCN(C(=O)c1csc(-c2cnc(-c3ccccc3)o2)n1)[C@H]1CCNC1 [Compound 35, 2-(2-phenyl-1,3-oxazol-5-yl)-N-propyl-N-[(3S)-pyrrolidin-3-yl]-1,3-thiazole-4-carboxamide]	10 to 30	–
CC(C)N(C(=O)c1csc(-c2cnn(-c3cccnn3)c2)n1)[C@@H]1CCNC1 [Compound 332, N-(propan-2-yl)-2-[1-(pyridazin-3-yl)-1H-pyrazol-4-yl]-N-[(3R)-pyrrolidin-3-yl]-1,3-thiazole-4-carboxamide]	–	acidic vesicle formation relative to a DMSO-treated control: only a slight increase; increase in acidic vesicle formation: only a slight increase
CCCN(C(=O)c1csc(-c2cnn(-c3ccc(OC(F)(F)F)cc3)c2)n1)[C@@H]1CCNC1 [Compound 46, N-propyl-N-[(3R)-pyrrolidin-3-yl]-2-{1-[4-(trifluoromethoxy)phenyl]-1H-pyrazol-4-yl}-1,3-thiazole-4-carboxamide]	30 to 50	–
NCCCNC(=O)c1csc(-c2cnn(-c3ccccc3)c2)n1 [Compound 159, N-(3-aminopropyl)-2-(1-phenyl-1H-pyrazol-4-yl)-1,3-thiazole-4-carboxamide]	30 to 50	–
